{"source": "patent US8614217B2", "about": "(priority 2008, dated 2013)"}
{"experiment": "log P(HCOOH) (HPLC/MS)", "assay_type": "physicochemical", "settings": "HPLC on reversed phase columns, EEC directive 79/831 Annex V.A8; pH 2.7 with 0.1% formic acid in water and acetonitrile"}
{"smiles": "Cn1nnnc1C(=NOCc1cccc(NC(=O)c2ccc(F)cc2)n1)c1cccc(F)c1", "note": "[Example 329]", "log p": 3.57}
{"smiles": "Cc1ccccc1C(=O)Nc1cccc(CON=C(c2cccc(F)c2)c2nnnn2C)n1", "note": "[Example 331]", "log p": 3.61}
{"smiles": "Cn1nnnc1C(=NOCc1csc(NC(=O)c2ccc(Cl)cc2)n1)c1ccccc1", "note": "[Example 333]", "log p": 3.74}
{"smiles": "Cc1ccc(C(=O)Nc2nc(CON=C(c3ccccc3)c3nnnn3C)cs2)cc1", "note": "[Example 335]", "log p": 3.59}
{"smiles": "Cn1nnnc1C(=NOCc1csc(NC(=O)c2cc(F)cc(F)c2)n1)c1ccccc1", "note": "[Example 340]", "log p": 3.63}
{"smiles": "COc1ccccc1C(=O)Nc1cccc(CON=C(c2cccc(F)c2)c2nnnn2C)n1", "note": "[Example 345]", "log p": 3.79}
{"smiles": "Cc1ccc(C(=O)Nc2cccc(CON=C(c3cccc(F)c3)c3nnnn3C)n2)c(Cl)c1", "note": "[Example 354]", "log p": 3.9}
{"smiles": "Cn1nnnc1C(=NOCc1cccc(NC(=O)c2cccnc2Cl)n1)c1cccc(F)c1", "note": "[Example 360]", "log p": 2.94}
{"smiles": "Cn1nnnc1C(=NOCc1cccc(NC(=O)c2ccccc2Cl)n1)c1cccc(F)c1", "note": "[Example 362]", "log p": 3.57}
{"smiles": "Cn1nnnc1C(=NOCc1cccc(NC(=O)c2ccccc2Br)n1)c1cccc(F)c1", "note": "[Example 365]", "log p": 3.59}
{"smiles": "Cn1nnnc1C(=NOCc1cccc(NC(=O)c2ccccc2F)n1)c1cccc(F)c1", "note": "[Example 366]", "log p": 3.65}
{"smiles": "C#CCCOC(=O)Nc1cccc(CON=C(c2cccc(F)c2)c2nnnn2C)n1", "note": "[Example 374]", "log p": 3.21}
